Converted amounts (≈) assume the structure as drawn.
Key:
[1] = test system: NCI-ADR/RES (breast expressing the multiple drug resistance phenotype); assay: cells; format: cell-based; conditions: NCI/ADR-RES, 48 h; for GI50: SRB; for TGI: total growth inhibition
Description: (§1) The experiments were performed in triplicate.

[2] = test system: NCI-H460 (lung, non-small cells); assay: cells; format: cell-based; conditions: for GI50: SRB
Description: as §1

[3] = test system: 786-0 (renal); assay: cells; format: cell-based; conditions: for GI50: SRB
Description: as §1

[4] = test system: K-562 (leukemia); assay: cells; format: cell-based; conditions: for GI50: Homo sapiens, K562, K-562, 48 h, SRB
Description: as §1

[5] = test system: PC-3 (prostate); assay: cells; format: cell-based; conditions: for GI50: Homo sapiens, PC-3, 48 h, SRB; for TGI: PC-3, total growth inhibition, 48 h
Description: as §1

[6] = test system: U251 (glioma, CNS); assay: cells
Description: The GI50 values (growth inhibitory activity) (Table 1) refer to the drug concentration that produces a 50% reduction of cellular growth compared with the untreated control cells. The TGI (cytostatic activity) and LC50 (cytotoxic activity) values (Table 2) refer to the drug concentration required for total growth inhibition and killing 50% of the cells, respectively.
The synthesized compounds were assessed in the following ten human tumor cell lines from various tissues kindly provide by the National Cancer Institute (Frederick, MD, USA): U251 (glioma, CNS), MCF-7 (breast), NCI-ADR/RES (breast expressing the multiple drug resistance phenotype), 786-0 (renal), NCI-H460 (lung, non-small cells), PC-3 (prostate), OVCAR-3 (ovarian), HT-29 (colon), K-562 (leukemia) and HaCaT (keratinocytes). Stock cultures were grown in media containing 5 mL of RPMI 1640 (Gibco BRL) supplemented with 5% fetal bovine serum. Gentamicin ([…]) was added to the experimental cultures. Cells in 96-well plates (100 µL cells/well) were exposed to sample concentrations in DMSO/RPMI (0.25, 2.5, 25, and 250 µg/mL) at 37 °C and 5% CO2 for 48 h. […] Next, cells were fixed with 50% trichloroacetic acid, and cell proliferation was determined by spectrophotometric quantification (540 nm) of cellular protein content employing the sulforhodamine B assay. Doxorubicin (0.025–25 µg/mL) was used as a positive control. Three measurements were obtained: first at time point zero (T0, at the beginning of incubation) and then 48 h post-incubation for both the compound-free (C) and tested (T) cells. Cell proliferation was determined using the equation 100 × [(T − T0)/C − T0]. A cytostatic effect was observed when T ≥ T0, while a cytocidal effect occurred when T < T0. The experiments were performed in triplicate.

[7] = test system: ten human tumor cell lines; assay: Anticancer assay in vitro (sulforhodamine B), statements over the panel of cell lines; format: cell-based
Description: as §1

[8] = test system: MCF-7 (breast); assay: Anticancer assay in vitro (sulforhodamine B), MCF-7; format: cell-based; conditions: for GI50: MCF-7, 48 h, SRB; for TGI: MCF-7, total growth inhibition
Description: as §1

[9] = test system: OVCAR-3 (ovarian); assay: Anticancer assay in vitro (sulforhodamine B), OVCAR-3; format: cell-based; conditions: for TGI: OVCAR-3, total growth inhibition, 48 h; for GI50: SRB
Description: as §1

[10] = test system: HaCaT (keratinocytes); assay: Anticancer assay in vitro (sulforhodamine B), HaCaT; format: cell-based; conditions: 48 h; for GI50: Homo sapiens, SRB; for TGI: total growth inhibition
Description: as §1

[11] = test system: HT-29 (colon); assay: Anticancer assay in vitro (sulforhodamine B), HT-29; format: cell-based; conditions: for TGI: HT-29, total growth inhibition, 48 h; for GI50: SRB
Description: as §1

[12] = Anticancer assay in vitro (sulforhodamine B), HaCaT; format: cell-based; conditions: human, HaCaT keratinocytes, killing 50% of cells, read-out: LC50
Description: as §1

[13] = K-562, total growth inhibition, 48 h

Work on COC(=O)c1cc(O)c(O)c(O)c1 [Compound 2, Methyl gallate] yielded a CC50 ([1]; Homo sapiens, read-out: LC50) of 30.3 µg/mL (≈ 164 µM), a GI50 ([1]; Homo sapiens) of 0.12 µM and a TGI [1] of 3.62 µg/mL (≈ 19.7 µM). For the same compound, the CC50 ([2]; Homo sapiens, NCI-H460, 48 h, read-out: LC50) was 34.9 µg/mL (≈ 190 µM), the GI50 ([2]; Homo sapiens, NCI-H460, 48 h) was 0.13 µM and the TGI ([2]; NCI-H460, total growth inhibition, 48 h) was 7.97 µg/mL (≈ 43.3 µM). The TGI ([3]; 786-0, total growth inhibition, 48 h) was 8.62 µg/mL (≈ 46.8 µM), the CC50 ([3]; Homo sapiens, 786-0, 48 h, read-out: LC50) was 31.4 µg/mL (≈ 170 µM) and the GI50 ([3]; Homo sapiens, 786-0, 48 h) was 0.65 µM. It also gave a GI50 [4] of 0.31 µM, a TGI [4, 13] of 5.67 µg/mL and a GI50 [5] of 0.57 µM. It also gave a TGI [5] of 13.10 µg/mL (≈ 71.1 µM), a GI50 ([6]; Homo sapiens, U-251, 48 h) of 0.16 µM and a CC50 ([6]; Homo sapiens, U-251, 48 h, read-out: LC50) of 29.2 µg/mL (≈ 159 µM). The TGI ([6]; U251, total growth inhibition, 48 h) was 4.10 µg/mL (≈ 22.3 µM), the “TGI values over the cell lines tested” value ([7]; range over all human tumor cell lines) was 1.59 to 16.74 µM and the GI50 ([8]; Homo sapiens, MCF7) was 0.16 µM. It also gave a TGI ([8]; 48 h) of 5.12 µg/mL (≈ 27.8 µM), a CC50 ([9]; Homo sapiens, OVCAR-3, 48 h, read-out: LC50) of 33.7 µg/mL (≈ 183 µM) and a TGI [9] of 1.59 µg/mL (≈ 8.63 µM). The GI50 [10] was 0.26 µM, the TGI [10] was 16.74 µg/mL (≈ 90.9 µM) and the TGI [11] was 8.52 µg/mL (≈ 46.3 µM). For the same compound, the CC50 ([11]; Homo sapiens, HT-29, 48 h, read-out: LC50) was 30.6 µg/mL (≈ 166 µM) and the GI50 ([11]; Homo sapiens, HT-29, 48 h) was 0.49 µM.

Work on O=C(N/N=C/c1ccccc1)c1cc(O)c(O)c(O)c1 [Compound 4, N'-(Benzylidene)galloyl hydrazide] yielded a GI50 ([1]; Homo sapiens) of 7.16 µM, a GI50 ([2]; Homo sapiens, NCI-H460, 48 h) of 11.2 µM and a GI50 ([3]; Homo sapiens, 786-0, 48 h) of 9.06 µM. The GI50 [4] was 9.96 µM, the GI50 [5] was 5.07 µM and the GI50 ([6]; Homo sapiens, U-251, 48 h) was 7.8 µM. The GI50 ([7]; Homo sapiens, bound or range over all (for 4: nine) human tumor cell lines, read-out: GI50 values over the cell lines tested) was 1.24 to 9.96 µM, the GI50 ([8]; Homo sapiens, MCF7) was 5.55 µM and the TGI ([8]; 48 h) was 23.54 µg/mL (≈ 86.5 µM). For the same compound, the GI50 ([9]; Homo sapiens, OVCAR-3, 48 h) was 1.24 µM, the TGI [9] was 29.61 µg/mL (≈ 109 µM) and the GI50 [10] was 8.29 µM. For the same compound, the GI50 ([11]; Homo sapiens, HT-29, 48 h) was 7.53 µM.

Compound CN(C)c1ccc(/C=N/NC(=O)c2cc(O)c(O)c(O)c2)cc1 [Compound 5, N'-(4-Dimethylaminobenzylidene)galloyl hydrazide] has a GI50 ([1]; Homo sapiens) of 4.68 µM, a TGI [1] of 83.07 µg/mL (≈ 263 µM) and a GI50 ([2]; Homo sapiens, NCI-H460, 48 h) of 21.6 µM. It also gave a GI50 ([3]; Homo sapiens, 786-0, 48 h) of 8.93 µM, a GI50 [4] of 2.05 µM and a TGI ([4]; K-562, as printed in the text) of 8.98 µM. For the same compound, the TGI [4, 13] was 8.98 µg/mL, the GI50 ([6]; Homo sapiens, U-251, 48 h) was 24.1 µM and the GI50 ([8]; Homo sapiens, MCF7) was 8.61 µM. For the same compound, the CC50 ([8]; Homo sapiens, MCF7, MCF-7, killing 50% of cells, 48 h, read-out: LC50 (the source's name)) was 47.9 µg/mL (≈ 152 µM), the TGI ([8]; 48 h) was 20.26 µg/mL (≈ 64.3 µM) and the GI50 ([9]; Homo sapiens, OVCAR-3, 48 h) was 2.93 µM. It also gave a TGI [9] of 41.52 µg/mL (≈ 132 µM), a CC50 at 48 h [12] of 55.3 µg/mL (≈ 175 µM) and a GI50 [10] of 4.05 µM. For the same compound, the TGI [10] was 18.41 µg/mL (≈ 58.4 µM), the TGI [11] was 48.50 µg/mL (≈ 154 µM) and the GI50 ([11]; Homo sapiens, HT-29, 48 h) was 16.2 µM.

Compound O=C(N/N=C/c1ccc([N+](=O)[O-])cc1)c1cc(O)c(O)c(O)c1 [Compound 6, N'-(4-Nitrobenzylidene)galloyl hydrazide] has a GI50 ([1]; Homo sapiens) of 8.46 µM, a GI50 ([3]; Homo sapiens, 786-0, 48 h) of 7.6 µM and a GI50 [5] of 14 µM. The TGI [5] was 84.67 µg/mL (≈ 267 µM), the GI50 ([6]; Homo sapiens, U-251, 48 h) was 5.12 µM and the cytotoxic efficacy ([7]; OVCAR-3 and K-562 cell lines) was “did not demonstrate cytotoxic efficacy”. The GI50 ([9]; Homo sapiens, OVCAR-3, 48 h) was 5.91 µM and the GI50 [10] was 31.6 µM.

From article PMC6272127, “Synthesis, Antiproliferative Activity and Molecular Properties Predictions of Galloyl Derivatives” (Molecules, 2015)
